In US20250145715A1, “B7-H3 TARGETING FUSION PROTEINS AND METHODS OF USE THEREOF” (GT Biopharma, Inc., priority 2021, published 2025):

Experiments:
Assay type in all cases: cell-based, human
[1] = system: H929 myeloma cells with MDSC; assay: Myeloma cytotoxicity assay with added MDSC, live cell imaging; conditions: B7-H3 TriKE and NK cells, 48 hours live cell imaging
Method: FIGS. 10A-10D illustrate the effect B7-H3-TriKE on MDSC developed from CD33+ myeloid cells from healthy donors, when incubated with myeloma cells at 1:100 ratio. FIG. 10A is a graph showing MDSC (CD14+CD11b+) expression of B7-H3. FIG. 10B is a graph showing cell survival as measured by flow cytometry. FIG. 10C is a plot of live, CD14+ cells FIG. 10D is a graph illustrating H929 growth as measured over 48 hours by live cell imaging.
MDSC were developed from CD33+ myeloid cells from healthy donors using IL-6 and GM-CSF or by incubating them with myeloma cells at 1:100 ratio for seven days.

[2] = system: OVCAR3 ovarian cancer cells; assay: NK cell CD107a / IFNγ flow cytometry against OVCAR3; conditions: 30 nM, E:T 2:1, 4 hrs; vs no treatment and rhIL-15 alone
Method: Healthy donor or ovarian cancer PBMC cells were incubated with ovarian tumor targets at 2:1 E:T ratio for 4 hrs with 30 nM TriKE or control condition. FIG. 30A is a graph illustrating pooled proportion of NK cells from healthy donors expressing CD107a+ (degranulation) against OVCAR8 targets (N=8). FIG. 30B is a graph illustrating pooled proportion of NK cells from healthy donors expressing IFNγ cytokine production against OVCAR8 targets (N=8). FIG. 30C is a graph illustrating pooled proportion of NK cells from healthy donors expressing CD107a+ (degranulation) against OVCAR3 targets (N=4). […] FIG. 30I is a graph illustrating that tumor killing was evaluated using IncuCyte imaging assay. […] The percentage of Live (Nuclight Red+Caspase 3/7−) tumor cells was quantified over a 48-h period and normalized to tumor alone. Readings were obtained every 15 min (representative of four separate experiments). * p<0.05, ** p<0.01, *** p<0.001, and **** p<0.0001.
ADCC was measured in a flow cytometry assay by evaluating degranulation via CD107a (lysosomal-associated membrane protein LAMP-1) and intracellular IFNγ production. […] Samples were washed and evaluated in an LSRII flow cytometer (BD Biosciences, San Jose, CA, USA).
The ability of cam1615B7-H3 TriKE to mediate NK cell activity against ovarian cancer cells was evaluated. […]

prostate cancer cells = assay: NK cell function against prostate cancer cells (flow cytometry)
Method: FIG. 13A is a graph showing percent of NK cells expressing IFNγ against prostate cancer cell targets. FIG. 13B is a graph illustrating the proportion of NK cells undergoing 3 or more rounds of division.
ADCC was measured in a flow cytometry assay by evaluating degranulation via CD107a (lysosomal-associated membrane protein LAMP-1) and intracellular IFNγ production. Upon thawing, normal donor and patient-derived PBMCs or ascites cells were rested overnight (37° C., 5% CO2) in RPMI 1640 media supplemented with 10% fetal calf serum (RPMI-10). The next morning, they were suspended with tumor-target cells or media after washing twice with RPMI-10. Cells were then incubated with TriKEs or controls for 10 min at 37° C. Fluorescein isothiocyate (FITC)-conjugated anti-human CD107a monoclonal antibody (BD Biosciences, San Jose, CA, USA) was then added. Following an hour 37° C. incubation, GolgiStop (1:1500, BD Biosciences) and GolgiPlug (1:1000, BD Biosciences) were added for 3 h. After washing with phosphate buffered saline, the cells were stained with PE/Cy 7-conjugated anti-CD56 mAb, APC/Cy 7-conjugated anti-CD16 mAb, and PE-CF594-conjugated anti-CD3 mAb (BioLegend, San Diego, CA, USA). Cells were incubated for 15 min at 4° C., washed, and fixed with 2% paraformaldehyde. Cells were then permeabilized using an intracellular perm buffer (BioLegend) to evaluate production of IFNγ through detection via aBV650 conjugated anti-human IFNγ antibody (BioLegend). Samples were washed and evaluated in an LSRII flow cytometer (BD Biosciences, San Jose, CA, USA).
As illustrated in FIGS. 12A-12D, 14A-14L and 15A-15D cam1615B7-H3 TriKE targets prostate cancer. The ability of the cam1615B7-H3 TriKE to improve NK cell activity against prostate cancer was tested. All of the prostate cancer cell lines tested expressed B7-H3. For these tests, normal donor PBMCs and PBMCs obtained from metastatic prostate cancer patients were used.

[3] = system: LNCaP prostate cancer cells; assay: NK cell CD107a / IFNγ flow cytometry against LNCaP; conditions: normal donor and prostate cancer patient NK cells, vs controls
Source text: FIG. 15A is a graph showing pooled analysis of proportion of NK cells from healthy donors or prostate cancer patients expressing CD107a+ (top) or IFNγ (bottom) against C4-2 targets (N=9 for healthy donors, N=3 for patients). FIG. 15B is a graph showing pooled analysis of proportion of NK cells from healthy donors or prostate cancer patients expressing CD107a+ (top) or IFNγ (bottom) against DU145 targets (N=9 for healthy donors, N=3 for patients). FIG. 15C is a graph showing pooled analysis of proportion of NK cells from healthy donors or prostate cancer patients expressing CD107a+ (top) or IFNγ (bottom) against LNCaP targets (N=9 for healthy donors, N=3 for patients). FIG. 15D is a graph showing pooled analysis of proportion of NK cells from healthy donors or prostate cancer patients expressing CD107a+ (top) or IFNγ (bottom) against PC3 targets (N=9 for healthy donors, N=3 for patients). * p<0.05, ** p<0.01, *** p<0.001, and **** p<0.0001.
ADCC was measured in a flow cytometry assay by evaluating degranulation via CD107a (lysosomal-associated membrane protein LAMP-1) and intracellular IFNγ production. Upon thawing, normal donor and patient-derived PBMCs or ascites cells were rested overnight (37° C., 5% CO2) in RPMI 1640 media supplemented with 10% fetal calf serum (RPMI-10). […] Samples were washed and evaluated in an LSRII flow cytometer (BD Biosciences, San Jose, CA, USA). […]

Substance | MDSC-enhanced myeloma cell growth [1] | NK cell degranulation against OVCAR3 [2] | NK cell intracellular IFNγ production against OVCAR3 [2] | NK function (IFNγ) against prostate cancer cell targets vs IL-15 alone (prostate cancer cells; compared to IL-15 alone) | B7-H3 specificity of the signal (prostate cancer cells; with prostate cancer cells) | TriKE-induced signal vs natural cytotoxicity signal (prostate cancer cells; with prostate cancer cells) | NK cell IFNγ production against LNCaP [3] | NK cell degranulation (CD107a) against LNCaP [3]
B7-H3 TriKE: camelid nanobodies targeting CD16 and B7-H3 joined by IL-15 and two linkers; sequence table equates the name with cam1615B7-H3 | overcome |  |  |  |  |  |  | 
cam1615B7-H3: second-generation TriKE: humanized camelid anti-CD16 VHH, human wild-type IL-15, anti-B7-H3 mAb 376.96 scFv; SEQ ID NO:1 |  | robust | robust | more potent at inducing NK function than IL-15 alone | specific to B7-H3 | stronger than that induced by a strong natural cytotoxicity signal | enhanced | enhanced
